Results: article PMC9268571, “Parabens Permeation through Biological Membranes: A Comparative Study Using Franz Cell Diffusion System and Biomimetic Liquid Chromatography” (Molecules, 2022)
Where two headings read alike, the source gives them in different places.

What was measured:
[1] = design: method as in PubCHEM; details: n-octanol–water; ref PubCHEM; cited from earlier work
[2] = IAM chromatography (phospholipophilicity) on IAM.PC.MG; type: physicochemical; details: 0.1 M phosphate buffer pH 5.0/acetonitrile, extrapolated to 100% aqueous phase
Protocol: (§1) Phospholipophilicity was experimentally determined using two IAM analytical columns, i.e., IAM.PC.MG (150 × 4.6 mm, 10 μm p.s., pore size: 300 Å) and IAM.PC.DD2 (150 × 4.6 mm, 10 μm p.s., pore size: 300 Å), both from Regis Chemical Company (Morton Grove, IL, USA). The analyses on the IAM.PC.MG were conducted on a LC-20 AD VP (from Shimadzu Corp., Kyoto, Japan), equipped with an ultraviolet (UV)–visible detector (Shimadzu Model SPD10 AV) set at λ = 254 nm. For the determinations on the IAM.PC.DD2, an alliance HPLC system (Waters Corporation, Milford, MA USA) with 2690/2695 separation module, 2996 PDA detector, 717 plus autosampler, and 2487 dual λ absorbance detector, was used at 254 nm wavelength instead. The methods were set, and chromatograms were recorded by Waters Empower® 3 software (Milford, MA USA). On both columns, employed eluents were 0.1 M phosphate buffer at pH 5.0 and acetonitrile at various percentages with a flow rate of 1.0 mL min^−1. All samples were dissolved in acetonitrile (ca. 10^−4 M), and chromatographic analyses were carried out at 22 ± 2 °C. The two different IAM stationary phases differ from each other in the end-capping of residual amino groups of the silica-propylamine core, which support C10 and C3 alkyl chains being end-capped by both decanoic and propionic anhydrides (IAM.PC.DD2), while IAM.PC.MG supports hydroxy groups being end-capped by methyl glycolate. […] Since all the compounds under our investigation required at least the addition of acetonitrile to the mobile phase to elute within 20 min, at least three different mobile phases containing acetonitrile in percentages (φ), ranging from 10% to 30% (v/v), were employed. All kw IAM values average at least three individual measurements, and the final values are reported as decimal logarithms.

[3] = IAM chromatography (phospholipophilicity) on IAM.PC.DD2; type: physicochemical; details: 0.1 M phosphate buffer pH 5.0/acetonitrile, extrapolated to 100% aqueous phase
Protocol: as §1

[4] = source not stated, no method described; cited from earlier work
[5] = in vitro; details: male, pig

Row | logkw IAM.MG [2] | logkw IAM.DD2 [3] | Structure (SMILES) | Log P [1] | S (Solubility in water) [4] [µg/mL] | further results
1 | 2.292 | 2.735 | O=C(OCc1ccccc1)c1ccc(O)cc1 [BzP, Benzyl 4-hydroxybenzoate] | 3.56 | 92 | –
2 | 0.615 | 1.306 | COC(=O)c1ccc(O)cc1 [MP, Methyl 4-hydroxybenzoate] | – | – | –
3 | 1.339 | 2.267 | CCCOC(=O)c1ccc(O)cc1 [PrP, Propyl 4-hydroxybenzoate] | – | – | detection in receptor fluids (at any time (½–24 h), fully aqueous donor pH 5.0): not detected
4 | 1.708 | 2.448 | CC(C)COC(=O)c1ccc(O)cc1 [iBuP, Isobutyl 4-hydroxybenzoate] | 3.57 | 207 | –
5 | 1.227 | 1.914 | CC(C)OC(=O)c1ccc(O)cc1 [iPrP, Isopropyl 4-hydroxybenzoate] | – | 500 | –

Row | Structure (SMILES) | logkw IAM.MG [2] | logkw IAM.DD2 [3] | Log P [1] | S (Solubility in water) [4] [µg/mL] | further results
6 | CCCCOC(=O)c1ccc(O)cc1 [BuP, Butyl 4-hydroxybenzoate] | 1.818 | 2.812 | 3.57 | – | –
7 | CCOC(=O)c1ccc(O)cc1 [EP, Ethyl 4-hydroxybenzoate] | 0.956 | 1.751 | 2.47 | 885 | Log Kp * (determined in the present study) (experimental, Franz cell, porcine ear skin): −6.58 cm/s; time to maximum passage through the porcine skin (from the beginning of the experiment): ≤ 120 min; Maximum Flux (porcine ear skin, saturated solution in PBS pH 5.0 as donor, receptor PBS pH 7.4, 37 °C, ± standard deviation): 2.35 ± 0.71 µg/cm^2/h; Permeation (%) (Median) (porcine ear skin, median, 95% interval confidence in parentheses): 0.110 (0–0.11) %; Papp at 24 h [5]: 0.261 ×10⁻⁶ cm/s
8 | O=C(O)c1ccc(O)cc1 [pHBA, 4-Hydroxybenzoic acid] | < 1 | < 1 | – | – | Maximum Flux (male, pig): 12.68 ± 4.08 µg/cm^2/h; Permeation (%) (Median) (male, pig): 0.997 (0–1.22) %; time to maximum passage through the porcine skin (male, pig): ≤ 30 min; Log Kp * (determined in the present study) (pig): −5.48 cm/s; logkw IAM.MG ([2]; listed as pHB): −0.955; Papp at 24 h [5]: 3.33 ×10⁻⁶ cm/s; logkw IAM.DD2 ([3]; listed as pHB): −1.054
